The target in the experiment is T1, KRas-G12D (Homo sapiens, UniProt P01116, G12D).
T1 construct: insert the HiBiT tag onto the N-terminus of one or more of the endogenous KRas alleles; host or cells: AsPC-1 HiBiT-KRasG12D knock-in clone (one tagged allele, two untagged KRasG12D alleles)
Description: HiBiT Degradation Assay (G12D), AsPC-1 HiBiT-KRasG12D cells, 24 hr. To be noted: for Dmax: ASPC1, AsPC-1 cells, maximum degradation observed; for DC50: AsPC-1 cells. It is filed as cell-based. Summed up:
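Degradation was read after 24 hr compound exposure (0.5% DMSO, 37° C) by Nano-Glo HiBiT lytic luminescence in AsPC-1 cells carrying a HiBiT tag on one of three KRasG12D alleles. Signal relative to DMSO gave DC50 and Dmax by 4-parameter fit; alamar blue fluorescence monitored cytotoxicity.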

Bounds are passed on as bounds.

T1 sequence (P01116 1-188 isoform P01116-2 G12D): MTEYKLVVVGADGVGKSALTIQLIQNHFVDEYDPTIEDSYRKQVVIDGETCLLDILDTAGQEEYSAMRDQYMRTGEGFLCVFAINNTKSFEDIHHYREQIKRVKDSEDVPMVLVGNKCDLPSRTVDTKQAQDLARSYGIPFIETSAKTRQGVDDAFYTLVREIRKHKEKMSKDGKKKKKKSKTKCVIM

The molecule `C#Cc1c(F)ccc2cc(O)cc(-c3ncc4c(N5CC6CCC(C5)N6)nc(OCC5(CN6CCC(CC7CCN(c8ccc9c(c8)CN(C8CCC(=O)NC8=O)C9=O)CC7)CC6)CC5)nc4c3F)c12` (stereo not drawn) [Compound 99, 3-{5-[4-({1-[(1-{[(4-{3,8-diazabicyclo[3.2.1]octan-3-yl}-7-(8-ethynyl-7-fluoro-3-hydroxynaphthalen-1-yl)-8-fluoropyrido[4,3-d]pyrimidin-2-yl)oxy]methyl}cyclopropyl)methyl]piperidin-4-yl}methyl)piperidin-1-yl]-1-oxo-2,3-dihydro-1H-isoindol-2-yl}piperidine-2,6-dione] yielded a maximal degradation (Dmax) above 70% and a DC50 below 5.1 µM.

Regarding `C#Cc1c(F)ccc2cc(O)cc(-c3ncc4c(N5CC6CCC(C5)N6)nc(OC[C@@]56CCCN5[C@H](CN5CCN(CC7CCN(c8ccc9c(c8)CN(C8CCC(=O)NC8=O)C9=O)CC7)CC5)CC6)nc4c3F)c12` (stereo partly drawn) [Compound 100, 3-(5-{4-[(4-{[(3S,7aS)-7a-{[(4-{3,8-diazabicyclo[3.2.1]octan-3-yl}-7-(8-ethynyl-7-fluoro-3-hydroxynaphthalen-1-yl)-8-fluoropyrido[4,3-d]pyrimidin-2-yl)oxy]methyl}-hexahydro-1H-pyrrolizin-3-yl]methyl}piperazin-1-yl)methyl]piperidin-1-yl}-1-oxo-2,3-dihydro-1H-isoindol-2-yl)piperidine-2,6-dione], the Dmax is above 70% and the DC50 was below 5.1 µM.

In turn, `C#Cc1c(F)ccc2cc(O)cc(-c3ncc4c(N5CC6CCC(C5)N6)nc(OCCN5CCC(CN6CCN(CC7CCN(c8ccc9c(c8F)CN(C8CCC(=O)NC8=O)C9=O)CC7)CC6)CC5)nc4c3F)c12` (stereo not drawn) [Compound 101, 3-[5-[4-[[4-[[1-[2-[4-(3,8-diazabicyclo[3.2.1]octan-3-yl)-7-(8-ethynyl-7-fluoro-3-hydroxy-1-naphthyl)-8-fluoro-pyrido[4,3-d]pyrimidin-2-yl]oxyethyl]-4-piperidyl]methyl]piperazin-1-yl]methyl]-1-piperidyl]-4-fluoro-1-oxo-isoindolin-2-yl]piperidine-2,6-dione] registered a Dmax above 70% and a DC50 below 5.1 µM.

Take `C#Cc1c(F)ccc2cc(O)cc(-c3ncc4c(N5CC6CCC(C5)N6)nc(OC[C@@H]5C[C@@H](OC6CCN(c7ccc8c(c7F)CN(C7CCC(=O)NC7=O)C8=O)CC6)CN5C)nc4c3F)c12` (stereo partly drawn) [Compound 103, 3-[5-(4-{[(3R,5S)-5-{[(4-{3,8-diazabicyclo[3.2.1]octan-3-yl}-7-(8-ethynyl-7-fluoro-3-hydroxynaphthalen-1-yl)-8-fluoropyrido[4,3-d]pyrimidin-2-yl)oxy]methyl}-1-methylpyrrolidin-3-yl]oxy}piperidin-1-yl)-4-fluoro-1-oxo-2,3-dihydro-1H-isoindol-2-yl]piperidine-2,6-dione]: the Dmax was above 70% and the DC50 was below 5.1 µM.

As for `C#Cc1c(F)ccc2cc(O)cc(-c3ncc4c(N5CC6CCC(C5)N6)nc(OC[C@@H]5C[C@@H](OC6CCN(c7ccc8c(c7)CN(C7CCC(=O)NC7=O)C8=O)CC6)CN5C)nc4c3F)c12` (stereo partly drawn) [Compound 104], the Dmax was above 70% and the DC50 is below 5.1 µM.

Molecule `C#Cc1c(F)ccc2cc(O)cc(-c3ncc4c(N5CC6CCC(C5)N6)nc(N(C)CCN5CCC(CC6CCN(CC7CCN(c8ccc9c(c8F)CN(C8CCC(=O)NC8=O)C9=O)CC7)CC6)CC5)nc4c3F)c12` (stereo not drawn) [Compound 105] came in with a Dmax of at most 25% and a DC50 below 5.1 µM.

As to `C#Cc1c(F)ccc2cc(O)cc(-c3ncc4c(N5CC6CCC(C5)N6)nc(OCCN5CCC(OC6CCN(CC7CCN(c8ccc9c(c8F)CN(C8CCC(=O)NC8=O)C9=O)CC7)CC6)CC5)nc4c3F)c12` (stereo not drawn) [Compound 106, 3-{5-[4-({4-[(1-{2-[(4-{3,8-diazabicyclo[3.2.1]octan-3-yl}-7-(8-ethynyl-7-fluoro-3-hydroxynaphthalen-1-yl)-8-fluoropyrido[4,3-d]pyrimidin-2-yl)oxy]ethyl}piperidin-4-yl)oxy]piperidin-1-yl}methyl)piperidin-1-yl]-4-fluoro-1-oxo-2,3-dihydro-1H-isoindol-2-yl}piperidine-2,6-dione], the Dmax was above 70% and the DC50 is below 5.1 µM.

`C#Cc1c(F)ccc2cc(O)cc(-c3cnc4c(N5CC6CCC(C5)N6)nc(OCCN5CCC(CC6CCN(CC7CCN(c8ccc9c(c8F)CN(C8CCC(=O)NC8=O)C9=O)CC7)CC6)CC5)nc4c3)c12` (stereo not drawn) [Compound 107] showed a DC50 above 1 µM.

Take `C#Cc1c(F)ccc2cc(O)cc(-c3ccc4c(N5CC6CCC(C5)N6)nc(OCCN5CCC(CC6CCN(CC7CCN(c8ccc9c(c8F)CN(C8CCC(=O)NC8=O)C9=O)CC7)CC6)CC5)nc4c3)c12` (stereo not drawn) [Compound 108]: the Dmax was at most 25% and the DC50 is below 5.1 µM.

As for `C#Cc1c(F)ccc2cc(O)cc(-c3ncc4c(N5CC6CCC(C5)N6)nc(OCCN5CCC(CC6CCN(CC7CCN(c8ccc9c(c8Cl)CN(C8CCC(=O)NC8=O)C9=O)CC7)CC6)CC5)nc4c3F)c12` (stereo not drawn) [Compound 109, 3-(5-(4-((4-((1-(2-((4-(-3,8-diazabicyclo[3.2.1]octan-3-yl)-7-(8-ethynyl-7-fluoro-3-hydroxynaphthalen-1-yl)-8-fluoropyrido[4,3-d]pyrimidin-2-yl)oxy)ethyl)piperidin-4-yl)methyl)piperidin-1-yl)methyl)piperidin-1-yl)-4-chloro-1-oxoisoindolin-2-yl)piperidine-2,6-dione], the Dmax is above 70% and the DC50 is below 5.1 µM.

On to `C#Cc1c(F)ccc2cc(O)cc(-c3ncc4c(N5CC6CCC(C5)N6)nc(OCCN5CCC(CC6CCN(CC7CCN(c8ccc9c(c8)C(=O)N(C8CCC(=O)NC8=O)C9)CC7)CC6)CC5)nc4c3F)c12` (stereo not drawn) [Compound 110, 3-{6-[4-({4-[(1-{2-[(4-{3,8-diazabicyclo[3.2.1]octan-3-yl}-7-(8-ethynyl-7-fluoro-3-hydroxynaphthalen-1-yl)-8-fluoropyrido[4,3-d]pyrimidin-2-yl)oxy]ethyl}piperidin-4-yl)methyl]piperidin-1-yl}methyl)piperidin-1-yl]-1-oxo-2,3-dihydro-1H-isoindol-2-yl}piperidine-2,6-dione], for which the Dmax is above 70% and the DC50 was below 5.1 µM.

Molecule `C#Cc1c(F)ccc2cc(O)cc(-c3ncc4c(N5CC6CCC(C5)N6)nc(OCCN5CCC(CN6CCN(CC7CCN(c8ccc9c(c8)CN(C8CCC(=O)NC8=O)C9=O)CC7)CC6)CC5)nc4c3F)c12` (stereo not drawn) [Compound 111, 3-[5-[4-[[4-[[1-[2-[4-(3,8-diazabicyclo[3.2.1]octan-3-yl)-7-(8-ethynyl-7-fluoro-3-hydroxy-1-naphthyl)-8-fluoro-pyrido[4,3-d]pyrimidin-2-yl]oxyethyl]-4-piperidyl]methyl]piperazin-1-yl]methyl]-1-piperidyl]-1-oxo-isoindolin-2-yl]piperidine-2,6-dione] came in with a Dmax above 70% and a DC50 below 5.1 µM.

`C#Cc1c(F)ccc2cc(O)cc(-c3ncc4c(N5CC6CCC(C5)N6)nc(OC[C@@H]5C[C@@H](OC6CCN(CC7(F)CCN(c8ccc9c(c8F)CN(C8CCC(=O)NC8=O)C9=O)CC7)CC6)CN5C)nc4c3F)c12` (stereo partly drawn) [Compound 112, 3-(5-{4-[(4-{[(3R,5S)-5-{[(4-{3,8-diazabicyclo[3.2.1]octan-3-yl}-7-(8-ethynyl-7-fluoro-3-hydroxynaphthalen-1-yl)-8-fluoropyrido[4,3-d]pyrimidin-2-yl)oxy]methyl}-1-methylpyrrolidin-3-yl]oxy}piperidin-1-yl)methyl]-4-fluoropiperidin-1-yl}-4-fluoro-1-oxo-2,3-dihydro-1H-isoindol-2-yl)piperidine-2,6-dione] registered a Dmax above 70% and a DC50 below 5.1 µM.

As for `C#Cc1c(F)ccc2cc(O)cc(-c3ncc4c(N5C[C@H]6CC[C@@H](C5)N6)nc(OC[C@@H]5C[C@@H](OC6CCN(CC7CCN(c8ccc9c(c8Cl)CN(C8CCC(=O)NC8=O)C9=O)CC7)CC6)CN5C)nc4c3F)c12` (stereo partly drawn) [Compound 113, 3-(5-(4-((4-(((3R,5S)-5-(((4-((1R,5S)-3,8-diazabicyclo[3.2.1]octan-3-yl)-7-(8-ethynyl-7-fluoro-3-hydroxynaphthalen-1-yl)-8-fluoropyrido[4,3-d]pyrimidin-2-yl)oxy)methyl)-1-methylpyrrolidin-3-yl)oxy)piperidin-1-yl)methyl)piperidin-1-yl)-4-chloro-1-oxoisoindolin-2-yl)piperidine-2,6-dione], the Dmax was above 70% and the DC50 was below 5.1 µM.

In turn, `C#Cc1c(F)ccc2cc(O)cc(-c3ncc4c(N5CC6CCC(C5)N6)nc(OC[C@@H]5CC[C@@H](COC(=O)N6CCN(c7ccc8c(c7)CN(C7CCC(=O)NC7=O)C8=O)CC6)N5C)nc4c3F)c12` (stereo partly drawn) [Compound 114, [(2S,5S)-5-{[(4-{3,8-diazabicyclo[3.2.1]octan-3-yl}-7-(8-ethynyl-7-fluoro-3-hydroxynaphthalen-1-yl)-8-fluoropyrido[4,3-d]pyrimidin-2-yl)oxy]methyl}-1-methylpyrrolidin-2-yl]methyl 4-[2-(2,6-dioxopiperidin-3-yl)-1-oxo-2,3-dihydro-1H-isoindol-5-yl]piperazine-1-carboxylate] had a DC50 below 5.1 µM.

With `C#Cc1c(F)ccc2cc(O)cc(-c3ncc4c(N5CC6CCC(C5)N6)nc(OC[C@@H]5C[C@@H](OC6CCN(CC7CCN(c8cccc9c8CN(C8CCC(=O)NC8=O)C9=O)CC7)CC6)CN5C)nc4c3F)c12` (stereo partly drawn) [Compound 115, 3-(4-{4-[(4-{[(3R,5S)-5-{[(4-{3,8-diazabicyclo[3.2.1]octan-3-yl}-7-(8-ethynyl-7-fluoro-3-hydroxynaphthalen-1-yl)-8-fluoropyrido[4,3-d]pyrimidin-2-yl)oxy]methyl}-1-methylpyrrolidin-3-yl]oxy}piperidin-1-yl)methyl]piperidin-1-yl}-1-oxo-2,3-dihydro-1H-isoindol-2-yl)piperidine-2,6-dione], the maximal degradation (Dmax) was above 70% and the DC50 was below 5.1 µM.

These data come from patent US12448399B2, “Cereblon-based KRAS degrading PROTACs and uses related thereto” (Arvinas Operations, Inc., priority 2023, dated 2025).
